Measured values published in patent EP1157985A1 (G.D. SEARLE & CO., priority 1996, dated 1997).
Counter-ions that a name gives are not always drawn. Like-named read-outs stand apart in the source and are kept apart here.

Experiments:
[1] = target: T1, Human fibrinogen receptor (αIIbβ3) (Homo sapiens, UniProt P05106+P08514); experiment: Purified IIb/IIIa receptor assay (solid phase receptor assay, competition with biotinylated vitronectin); assay type: binding; details: purified receptor from outdated platelets; 1 nM biotinylated vitronectin; highest concentration tested 1.0 x 10^-4 M
T1 construct: Human fibrinogen receptor (αIIbβ3) was purified from outdated platelets; from tissue; host or cells: outdated (human) platelets
Text: PURIFIED IIb/IIIa RECEPTOR ASSAY
Human fibrinogen receptor (αIIbβ3) was purified from outdated platelets. (Pytela, R., Pierschbacher, M.D., Argraves, S., Suzuki, S., and Rouslahti, E. "Arginine-Glycine-Aspartic acid adhesion receptors", Methods in Enzymology 144(1987):475-489.) Human vitronectin was purified from fresh frozen plasma as described in Yatohgo, T., Izumi, M., Kashiwagi, H., and Hayashi, M., "Novel purification of vitronectin from human plasma by heparin affinity chromatography," Cell Structure and Function 13(1988):281-292. Biotinylated human vitronectin was prepared by coupling NHS-biotin from Pierce Chemical Company (Rockford, IL) to purified vitronectin as previously described. (Charo, I.F., Nannizzi, L., Phillips, D.R., Hsu, M.A., Scarborough, R.M., "Inhibition of fibrinogen binding to GP IIb/IIIa by a GP IIIa peptide", J. Biol. Chem. 266(3)(1991): 1415-1421.) Assay buffer, OPD substrate tablets, and RIA grade BSA were obtained from Sigma (St. Louis, MO). Anti-biotin antibody was obtained from Calbiochem (La Jolla, CA). Linbro microtiter plates were obtained from Flow Labs (McLean, VA). ADP reagent was obtained from Sigma (St. Louis, MO).
This assay is essentially the same reported in Niiya, K., Hodson, E., Bader, R., Byers-Ward, V. Koziol, J.A., Plow, E.F. and Ruggeri, Z.M., "Increased surface expression of the membrane glycoprotein IIb/IIIa complex induced by platelet activation: Relationships to the binding of fibrinogen and platelet aggregation", Blood 70(1987):475-483. The purified human fibrinogen receptor (αIIbβ3) was diluted from stock solutions to 1.0 µg/mL in Tris-buffered saline containing 1.0 mM Ca^++, Mg^++, and Mn^++, pH 7.4 (TBS^+++). The diluted receptor was immediately transferred to Linbro microtiter plates at 100 µL/well (100 ng receptor/well). The plates were sealed and incubated overnight at 4°C to allow the receptor to bind to the wells. All remaining steps were at room temperature. The assay plates were emptied and 200 µL of 1% RIA grade BSA in TBS^+++ (TBS^+++/BSA) were added to block exposed plastic surfaces. Following a 2 hour incubation, the assay plates were washed with TBS^+++ using a 96 well plate washer. Logarithmic serial dilution of the test compound and controls were made starting at a stock concentration of 2 mM and using 2 nM biotinylated vitronectin in TBS^+++/BSA as the diluent. This premixing of labeled ligand with test (or control) ligand, and subsequent transfer of 50 µL aliquots to the assay plate was carried out with a CETUS Propette robot; the final concentration of the labeled ligand was 1 nM and the highest concentration of test compound was 1.0 x 10^-4 M. The competition occurred for two hours after which all wells were washed with a plate washer as before. Affinity purified horseradish peroxidase labeled goat anti-biotin antibody was diluted 1:3000 in TBS^+++/BSA and 125 µL were added to each well. After 30 minutes, the plates were washed and incubated with […] substrate in 100 mM/L citrate buffer, pH 5.0. The plate was read with a microtiter plate reader at a wavelength of 450 nm and when the maximum-binding control wells reached an absorbance of about 1.0, the final A450 were recorded for analysis. The data were analyzed using a macro written for use with the EXCEL™ spreadsheet program. The mean, standard deviation, and %CV were determined for duplicate concentrations. The mean A450 values were normalized to the mean of four maximum-binding controls (no competitor added)(B-MAX). The normalized values were subjected to a four parameter curve fit algorithm, [Robard et al., Int. […]

[2] = target: T2, Human vitronectin receptor (αvβ3) (Homo sapiens, UniProt P05106+P06756); experiment: Vitronectin adhesion assay (solid phase receptor assay, competition with biotinylated vitronectin); assay type: binding
T2 construct: Human vitronectin receptor (αvβ3) was purified from human placenta; from tissue; host or cells: human placenta
Experimental: VITRONECTIN ADHESION ASSAY
Human vitronectin receptor (αvβ3) was purified from human placenta as previously described [Pytela et al., Methods in Enzymology, 144:475-489 (1987)]. Human vitronectin was purified from fresh frozen plasma as previously described [Yatohgo et al., Cell Structure and Function, 13:281-292 (1988)]. Biotinylated human vitronectin was prepared by coupling NHS-biotin from Pierce Chemical Company (Rockford, IL) to purified vitronectin as previously described [Charo et al., J. Biol. Chem., 266(3):1415-1421 (1991)]. Assay buffer, OPD substrate tablets, and RIA grade BSA were obtained from Sigma (St. Louis, MO). Anti-biotin antibody was obtained from Calbiochem (La Jolla, CA). Linbro microtiter plates were obtained from Flow Labs (McLean, VA). ADP reagent was obtained from Sigma (St. Louis, MO).
This assay was essentially the same as previously reported [Niiya et al., Blood, 70:475-483 (1987)]. The purified human vitronectin receptor (αvβ3) was diluted from stock solutions to 1.0 µg/mL in Tris-buffered saline containing 1.0 mM Ca^++, Mg^++, and Mn^++, pH 7.4 (TBS^+++). The diluted receptor was immediately transferred to Linbro microtiter plates at 100 µL/well (100 ng receptor/well). The plates were sealed and incubated overnight at 4°C to allow the receptor to bind to the wells. All remaining steps were at room temperature. The assay plates were emptied and 200 µL of 1% RIA grade BSA in TBS^+++ (TBS^+++/BSA) were added to block exposed plastic surfaces. Following a 2 hour incubation, the assay plates were washed with TBS^+++ using a 96 well plate washer. Logarithmic serial dilution of the test compound and controls were made starting at a stock concentration of 2 mM and using 2 nM biotinylated vitronectin in TBS^+++/BSA as the diluent. This premixing of labeled ligand with test (or control) ligand, and subsequent transfer of 50 µL aliquots to the assay plate was carried out with a CETUS Propette robot; the final concentration of the labeled ligand was 1 nM and the highest concentration of test compound was 1.0 x 10^-4 M. The competition occurred for two hours after which all wells were washed with a plate washer as before. Affinity purified horseradish peroxidase labeled goat anti-biotin antibody was diluted 1:3000 in TBS^+++/BSA and 125 µL were added to each well. After 30 minutes, the plates were washed and incubated with OPD/H2O2 substrate in 100 mM/L Citrate buffer, pH 5.0. The plate was read with a microtiter plate reader at a wavelength of 450 nm and when the maximum-binding control wells reached an absorbance of about 1.0, the final A450 were recorded for analysis. The data were analyzed using a macro written for use with the EXCEL™ spreadsheet program. The mean, standard deviation, and %CV were determined for duplicate concentrations. The mean A450 values were normalized to the mean of four maximum-binding controls (no competitor added)(B-MAX). The normalized values were subjected to a four parameter curve fit algorithm [Rodbard et al., Int.

[3] = purified receptor from human placenta; 1 nM biotinylated vitronectin; highest concentration tested 1.0 x 10^-4 M; read-out: AvB3 IC50

| SMILES | IC50 [1] [nM] | IC50 [2, 3] [nM] | IC50 ([2]; read-out: AvB3 IC50; purified receptor from human placenta; 1 nM biotinylated vitronectin; highest concentration tested 1.0 x 10^-4 M) [nM] |
| --- | --- | --- | --- |
| CC(Oc1ccc(NC(=O)c2cccc(NC(=N)N)c2)cc1)C(=O)O (stereo not shown) [Example 85, 2-[4-[[[3-[(aminoiminomethyl)amino]phenyl]. carbonyl]amino]phenoxy]propanoic acid, trifluoroacetate salt] | 12600 | 827 | – |
| CC(C)(C)OC(=O)N[C@H](Cc1ccc(NC(=O)c2cccc(NC(=N)N)c2)cc1)C(=O)O [Example 57, 4-[[[3-[(aminoiminomethyl)amino]phenyl]carbonyl]amino]-N-[(1,1-dimethylethoxy)carbonyl]-D-phenylalanine, monohydrate trifluoroacetate salt] | 318 | 14.5 | – |
| CCOC(=O)CCc1ccc(N(C)C(=O)c2cccc(NC(=N)N)c2)cc1 [Example 60, ethyl 4-[[[3-[(aminoiminomethyl)amino]phenyl]carbonyl]methylamino]benzenepropanoate, trifluoroacetate salt] | 3810 | 3370 | – |
| Cc1cc(C)c(S(=O)(=O)NC(Cc2ccc(NC(=O)c3cccc(NC(=N)N)c3)cc2)C(=O)O)c(C)c1 (stereo not shown) [Example 121, trifluoroacetate salt] | 2 | – | 1 |
| N=C(N)Nc1cccc(C(=O)Nc2ccc(CC(NC(=O)N3CCCCC3)C(=O)O)cc2)c1 (stereo not shown) [Example 126, 4-[[[3-[(aminoiminomethyl)amino]phenyl]carbonyl]-amino]-N-[(1-pipridinyl)carbonyl]phenyl-alanine, trifluoroacetate salt] | 36 | 2 | – |
| N=C(N)Nc1cccc(C(=O)Nc2ccc(OC(C(=O)O)c3ccccc3)cc2)c1 (stereo not drawn) [Example 86, α-[4-[[[3-[(aminoiminomethyl)amino]phenyl]carbonyl]amino]phenoxy]benzeneacetic acid, trifluoroacetate salt] | 3140 | 307 | – |
| CCOC(=O)C(CC(=O)O)c1ccc(NC(=O)c2cccc(NC(=N)N)c2)cc1 (stereo not shown) [Example 71, 1-ethyl hydrogen[4-[[[3-[(aminoiminomethyl)amino]phenyl]carbonyl]amino]-phenyl]butanedioate, trifluoroacetate salt] | 8.3 | 38.7 | – |
| N=C(N)Nc1cccc(C(=O)Nc2ccc(SCC(=O)O)cc2)c1 [Example 82, [[4-[[[3-[(aminoiminomethyl)amino]phenyl]carbonyl]amino]phenyl]thio]acetic acid, trifluoroacetate] | 332 | 264 | – |
| N=C(N)Nc1cccc(C(=O)Nc2ccc(CC(NS(=O)(=O)c3cc(Cl)cc(Cl)c3)C(=O)O)cc2)c1 (stereo not shown) [Example 122, [4-[[[3-[(aminoiminomethyl)amino]phenyl]carbonyl]-amino]-N-[(3,5-dichlorophenyl)sulfonyl]phenyl-alanine, trifluoroacetate salt] | 50 | 7 | – |
| CCCCS(=O)(=O)NC(Cc1ccc(NC(=O)c2cccc(NC(=N)N)c2)cc1)C(=O)O (stereo not shown) [Example 52, trifluoroacetate salt] | 1.88 | 0.33 | – |
| CC(C)(C)OC(=O)N[C@@H](Cc1ccc(NC(=O)c2cccc(NC(=N)N)c2)cc1)C(=O)O [Example 56, trifluoroacetate salt] | 6.35 | 0.43 | – |
| CN(C(=O)c1cccc(NC(=N)N)c1)c1ccc(CCC(=O)O)cc1 [Example 61, 4-[[[3-[(aminoiminomethyl)amino]phenyl]carbonyl]methylamino]benzenepropanoic acid, monohydrate trifluoroacetate salt] | 666 | 470 | – |
| O=C(O)CCc1ccc(NC(=O)c2cccc(NC(=O)NCc3ccccc3)c2)cc1 [Example 28, 4-[[[3-[[[(phenylmethyl)amino]carbonyl]amino]phenyl]carbonyl]amino]benzenepropanoic acid] | 10100 | 555 | – |
| CCCCS(=O)(=O)N[C@@H](Cc1ccc(NC(=O)c2cccc(NC3=NCCCCC3)c2)cc1)C(=O)O [Example 10, N-(butylsulfonyl)-4-[[[3-[(3,4,5,6-tetrahydro-2H-azepin-7-yl)-amino]phenyl]carbonyl]amino]phenylalanine, trifluoroacetate salt] | 26.9 | 1.17 | – |
| NC(N)=Nc1cccc(C(=O)Nc2ccc(CCC(=O)O)cc2)c1 [Example 64, 4-[[[3-[(aminoiminomethyl)amino]phenyl]carbonyl]amino]benzenepropanoic acid, hydrochloride] | 93.1 | 21.2 | – |
| NC(N)=Nc1cccc(C(=O)Nc2ccc(CCC(=O)O)c(C(=O)O)c2)c1 [Example 101A, 4-[[[3-[(aminoiminomethyl)amino]phenyl]carbonyl]-amino]-2-carboxybenzenepropanoic acid, bis(trifluoroacetate) salt] | 57 | 9 | – |
| O=C(O)CCc1ccc(NC(=O)c2cccc(NC3=NCCCN3)c2)cc1C(=O)O [Example 102, 2-carboxy-4-[[[3-[(1,4,5,6-tetrahydropyrimidin-2-yl)-amino]phenyl]carbonyl]amino]benzenepropanoic acid, trifluoroacetate salt] | 4710 | 6 | – |
